Laboratory results published in the NIST ThermoML archive (doi:10.1016/j.jct.2018.08.035).

Assay: xn = mol fraction of the nth substance listed
Settings: 100 kPa, Liquid, Vibrating tube method

CCC(O)CC [3-pentanol] + C[N+](=O)[O-]
Settings | mass density [kg/m3]
289.95 K, x1 = 0.3 | 1001.59
289.95 K, x1 = 0.325 | 997.479
289.95 K, x1 = 0.382 | 989.628
289.95 K, x1 = 0.414 | 986.685
289.95 K, x1 = 0.486 | 972.227
289.95 K, x1 = 0.488 | 969.425
289.95 K, x1 = 0.546 | 945.729
289.95 K, x1 = 0.573 | 926.782
289.95 K, x1 = 0.587 | 917.014
289.95 K, x1 = 0.615 | 902.235
289.96 K, x1 = 0.246 | 1008.64
289.96 K, x1 = 0.338 | 995.659
289.96 K, x1 = 0.363 | 992.594
289.96 K, x1 = 0.407 | 986.452
290.05 K, x1 = 0.266 | 1004.43
290.05 K, x1 = 0.325 | 996.695
290.05 K, x1 = 0.573 | 925.737
290.05 K, x1 = 0.587 | 916.65
290.06 K, x1 = 0.246 | 1008.03
290.06 K, x1 = 0.275 | 1005.08
290.06 K, x1 = 0.3 | 1000.6
290.06 K, x1 = 0.338 | 994.875
290.06 K, x1 = 0.363 | 991.838
290.06 K, x1 = 0.382 | 988.825
290.06 K, x1 = 0.407 | 985.25
290.06 K, x1 = 0.414 | 985.261
290.06 K, x1 = 0.486 | 971.285
290.06 K, x1 = 0.488 | 967.998
290.06 K, x1 = 0.546 | 944.207
290.06 K, x1 = 0.615 | 897.967
290.15 K, x1 = 0.246 | 1007.82
290.15 K, x1 = 0.266 | 1003.31
290.15 K, x1 = 0.275 | 1003.66
290.15 K, x1 = 0.3 | 999.813
290.15 K, x1 = 0.325 | 995.904
290.15 K, x1 = 0.363 | 990.879
290.15 K, x1 = 0.382 | 987.982
290.15 K, x1 = 0.407 | 984.083
290.15 K, x1 = 0.414 | 984.081
290.15 K, x1 = 0.486 | 970.021
290.15 K, x1 = 0.488 | 967.145
290.15 K, x1 = 0.546 | 942.592
290.15 K, x1 = 0.573 | 923.887
290.15 K, x1 = 0.587 | 916.211
290.15 K, x1 = 0.615 | 897.189
290.15 K, x1 = 0.629 | 888.276
290.16 K, x1 = 0.338 | 994.25
290.25 K, x1 = 0.246 | 1007.68
290.25 K, x1 = 0.266 | 1002.5
290.25 K, x1 = 0.275 | 1002.12
290.25 K, x1 = 0.3 | 999.25
290.25 K, x1 = 0.325 | 995.232
290.25 K, x1 = 0.363 | 990.096
290.25 K, x1 = 0.382 | 987.239
290.25 K, x1 = 0.407 | 983.056
290.25 K, x1 = 0.414 | 982.887
290.25 K, x1 = 0.486 | 968.242
290.25 K, x1 = 0.488 | 965.719
290.25 K, x1 = 0.546 | 941.205
290.25 K, x1 = 0.573 | 924.811
290.25 K, x1 = 0.587 | 914.293
290.25 K, x1 = 0.615 | 896.918
290.26 K, x1 = 0.338 | 993.457
290.35 K, x1 = 0.246 | 1007.56
290.35 K, x1 = 0.3 | 998.453
290.35 K, x1 = 0.338 | 992.611
290.35 K, x1 = 0.363 | 989.111
290.35 K, x1 = 0.382 | 986.379
290.35 K, x1 = 0.407 | 982.318
290.35 K, x1 = 0.414 | 981.695
290.35 K, x1 = 0.486 | 966.969
290.35 K, x1 = 0.546 | 939.634
290.35 K, x1 = 0.573 | 919.469
290.35 K, x1 = 0.587 | 912.051
290.35 K, x1 = 0.615 | 896.796
290.36 K, x1 = 0.266 | 1001.61
290.36 K, x1 = 0.275 | 1000.44
290.36 K, x1 = 0.325 | 994.188
290.36 K, x1 = 0.488 | 964.297
290.45 K, x1 = 0.246 | 1007.43
290.45 K, x1 = 0.275 | 998.669
290.45 K, x1 = 0.363 | 988.212
290.45 K, x1 = 0.382 | 985.548
290.45 K, x1 = 0.407 | 981.549
290.45 K, x1 = 0.414 | 980.935
290.45 K, x1 = 0.486 | 965.653
290.45 K, x1 = 0.488 | 962.338
290.45 K, x1 = 0.546 | 938.388
290.45 K, x1 = 0.573 | 918.938
290.45 K, x1 = 0.587 | 911.848
290.45 K, x1 = 0.615 | 891.445
290.46 K, x1 = 0.266 | 1000.04
290.46 K, x1 = 0.3 | 997.097
290.46 K, x1 = 0.325 | 993.308
290.46 K, x1 = 0.338 | 991.804
290.55 K, x1 = 0.246 | 1007.31
290.55 K, x1 = 0.363 | 987.195
290.55 K, x1 = 0.382 | 984.63
290.55 K, x1 = 0.407 | 980.769
290.55 K, x1 = 0.414 | 980.125
290.55 K, x1 = 0.486 | 963.548
290.55 K, x1 = 0.546 | 936.105
290.55 K, x1 = 0.573 | 918.841
290.55 K, x1 = 0.587 | 907.457
290.55 K, x1 = 0.615 | 891.334
290.56 K, x1 = 0.266 | 999.223
290.56 K, x1 = 0.275 | 997.256
290.56 K, x1 = 0.3 | 995.648
290.56 K, x1 = 0.325 | 992.372
290.56 K, x1 = 0.338 | 990.851
290.56 K, x1 = 0.488 | 960.605
290.65 K, x1 = 0.246 | 1007.18
290.65 K, x1 = 0.275 | 996.456
290.65 K, x1 = 0.363 | 986.092
290.65 K, x1 = 0.382 | 983.656
290.65 K, x1 = 0.407 | 979.953
290.65 K, x1 = 0.414 | 979.293
290.65 K, x1 = 0.486 | 962.186
290.65 K, x1 = 0.488 | 958.456
290.65 K, x1 = 0.546 | 933.71
290.65 K, x1 = 0.573 | 914.236
290.65 K, x1 = 0.587 | 907.308
290.65 K, x1 = 0.615 | 891.207
290.66 K, x1 = 0.266 | 998.714
290.66 K, x1 = 0.3 | 994.016
290.66 K, x1 = 0.325 | 991.399
290.66 K, x1 = 0.338 | 989.957
290.75 K, x1 = 0.246 | 1007.05
290.75 K, x1 = 0.266 | 998.54
290.75 K, x1 = 0.275 | 995.309
290.75 K, x1 = 0.338 | 988.906
290.75 K, x1 = 0.363 | 984.963
290.75 K, x1 = 0.382 | 982.614
290.75 K, x1 = 0.407 | 979.022
290.75 K, x1 = 0.414 | 978.364
290.75 K, x1 = 0.486 | 960.473
290.75 K, x1 = 0.488 | 956.964
290.75 K, x1 = 0.546 | 931.465
290.75 K, x1 = 0.573 | 914.122
290.75 K, x1 = 0.587 | 904.315
290.75 K, x1 = 0.615 | 891.079
290.76 K, x1 = 0.3 | 992.118
290.76 K, x1 = 0.325 | 990.346
290.85 K, x1 = 0.246 | 1006.93
290.85 K, x1 = 0.275 | 994.946
290.85 K, x1 = 0.363 | 983.532
290.85 K, x1 = 0.382 | 981.337
290.85 K, x1 = 0.407 | 977.974
290.85 K, x1 = 0.486 | 958.566
290.85 K, x1 = 0.488 | 954.397
290.85 K, x1 = 0.546 | 930.124
290.85 K, x1 = 0.573 | 911.261
290.85 K, x1 = 0.587 | 900.983
290.86 K, x1 = 0.266 | 998.415
290.86 K, x1 = 0.3 | 990.332
290.86 K, x1 = 0.325 | 989.272
290.86 K, x1 = 0.338 | 987.682
